Drawing on PubChem BioAssay (NCI), this text covers TGI and GI50 for 16 compounds.

Among the test systems are K-562 leukemia; EKVX NSCLC; HCC-2998 colon; MOLT-4 leukemia; SN12C renal; 786-0 renal; DU-145 prostate; HS 578T breast; PC-3 prostate; T-47D breast; COLO 205 colon; MDA-N; SK-MEL-5 melanoma.
Holding throughout (experiment): inhibition of tumour cell growth, NCI panel, 48 h

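Grown in 96-well plates, cells were treated for 48 hours with each compound at five concentrations. Insufficient inhibition: endpoint recorded as highest concentration tested. GI50 = concentration required for 50% inhibition of growth. TGI: concentration producing complete growth inhibition.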

On to `CCOC(=O)C1=C(C)OC2(O)C=CC(O)=C3C(=O)N(c4ccccc4)C(=O)C312` (stereo not drawn), for which the TGI with K-562 leukemia is over 100 µM; in the assay on EKVX NSCLC it was over 100 µM; with HCC-2998 colon, 73.9 µM; in the assay on MOLT-4 leukemia, over 100 µM; with SN12C renal, over 100 µM; in the assay with 786-0 renal, over 100 µM. The TGI in the assay on DU-145 prostate was over 100 µM; in the assay with HS 578T breast it was 61.7 µM; with PC-3 prostate it was over 100 µM; in the assay with T-47D breast, over 100 µM; in the assay with COLO 205 colon, over 100 µM.

Consider `NN(CC(=O)O)CC(=O)O`, for which the TGI in the assay on K-562 leukemia, in the assay with EKVX NSCLC, with HCC-2998 colon, in the assay on MOLT-4 leukemia, in the assay with SN12C renal and in the assay with 786-0 renal was over 100 µM throughout. In addition, the TGI with DU-145 prostate, with MDA-N, in the assay on HS 578T breast, in the assay on SK-MEL-5 melanoma, with PC-3 prostate and with T-47D breast was over 100 µM throughout. Further, the TGI in the assay on COLO 205 colon was over 100 µM.

For the compound `CN1CCc2[nH]c3ccccc3c2C1`, the TGI in the assay with K-562 leukemia, in the assay with EKVX NSCLC, in the assay with HCC-2998 colon, with MOLT-4 leukemia, in the assay with SN12C renal and in the assay on SK-MEL-5 melanoma was over 100 µM in each case. The same compound had a TGI with COLO 205 colon of over 100 µM.

Consider `Nc1ncnc2nc[nH]c12`, for which the TGI was over 250 µM with K-562 leukemia; over 250 µM with EKVX NSCLC; over 191 µM in the assay with HCC-2998 colon; 159 µM in the assay with MOLT-4 leukemia; over 237 µM in the assay on SN12C renal; over 250 µM in the assay on SK-MEL-5 melanoma. The TGI in the assay with COLO 205 colon is over 221 µM. In addition, the GI50 in the assay with MOLT-4 leukemia was 15.8 µM.

For `COc1cc2c(c(O)c1OC)-c1c(cc(OC)c(OC)c1OC)CC(C)C(C)C2` (stereo not drawn), the TGI was over 100 µM in the assay with K-562 leukemia; over 100 µM with EKVX NSCLC; over 100 µM in the assay on HCC-2998 colon; 43.4 µM with MOLT-4 leukemia; over 100 µM with SN12C renal; over 100 µM with 786-0 renal. In addition, the TGI with DU-145 prostate, with MDA-N, in the assay on HS 578T breast, in the assay on SK-MEL-5 melanoma, with PC-3 prostate and in the assay on T-47D breast was over 100 µM throughout. This compound returned a TGI in the assay on COLO 205 colon of over 100 µM.

Regarding `O=C([O-])C[n+]1ccccc1`, the TGI with K-562 leukemia, in the assay on EKVX NSCLC, with MOLT-4 leukemia, in the assay with SN12C renal, in the assay with 786-0 renal and in the assay with DU-145 prostate was over 100 µM in each case. The TGI with MDA-N, in the assay on HS 578T breast, in the assay with SK-MEL-5 melanoma, in the assay with PC-3 prostate, in the assay on T-47D breast and in the assay on COLO 205 colon was over 100 µM throughout.

Regarding `CC(CCN)(CCN)[N+](=O)[O-]`, the TGI in the assay on K-562 leukemia, with EKVX NSCLC, in the assay with MOLT-4 leukemia, with SN12C renal, in the assay with 786-0 renal and in the assay with DU-145 prostate was over 100 µM throughout. Further, the TGI in the assay on MDA-N, with HS 578T breast, with SK-MEL-5 melanoma, in the assay with PC-3 prostate, in the assay on T-47D breast and with COLO 205 colon was over 100 µM in each case.

As for `CN(C)CCCSc1nc2ccccc2[nH]1`, the TGI in the assay on K-562 leukemia, with EKVX NSCLC, in the assay with HCC-2998 colon, in the assay with SN12C renal, with 786-0 renal and in the assay with DU-145 prostate was over 100 µM throughout. The TGI with MDA-N, in the assay on HS 578T breast, in the assay on SK-MEL-5 melanoma, with T-47D breast and in the assay with COLO 205 colon was over 100 µM throughout.

With `CCCCCCCCCCCCCCCCCCOc1ccccc1CC(=O)OCC[N+]1(C)CCCCC1`, the GI50 in the assay on K-562 leukemia is 2.83 µM; in the assay on EKVX NSCLC, 2.65 µM; in the assay with MOLT-4 leukemia it was 1.73 µM; with SN12C renal it was 2.07 µM; in the assay with DU-145 prostate it was 3.02 µM; in the assay with HS 578T breast, 2.32 µM. In addition, the GI50 with T-47D breast is 2.49 µM. Moreover, the TGI in the assay with K-562 leukemia was found to be 10.1 µM; in the assay on EKVX NSCLC, 17.5 µM; with MOLT-4 leukemia it was 3.89 µM; in the assay on SN12C renal, 4.93 µM; in the assay with DU-145 prostate it was 9.61 µM; with HS 578T breast it was 6.53 µM. The compound also displayed a TGI in the assay on T-47D breast of 9.37 µM.

In the case of `O=C(O)c1cc([N+](=O)[O-])cc2c(=O)c3cnccc3[nH]c12`, the TGI with K-562 leukemia, with HCC-2998 colon, with MOLT-4 leukemia, in the assay with SN12C renal, in the assay on DU-145 prostate and with MDA-N was over 100 µM throughout. The TGI with HS 578T breast, with SK-MEL-5 melanoma, in the assay on PC-3 prostate, in the assay with T-47D breast and in the assay on COLO 205 colon was over 100 µM each time.

As for `CN1CCOC(c2ccc(Cl)cc2)O1` (stereo not drawn), the TGI in the assay with K-562 leukemia, in the assay on EKVX NSCLC, in the assay on HCC-2998 colon, in the assay with MOLT-4 leukemia, with SN12C renal and with MDA-N was over 100 µM each time. For the same compound, the TGI in the assay on SK-MEL-5 melanoma, in the assay on PC-3 prostate and with COLO 205 colon was over 100 µM in each case.

In the case of `O=C(Nc1ccc(Cl)cc1)c1cc2cc(N=Nc3ccccc3Cl)ccc2oc1=O`, the TGI in the assay on K-562 leukemia was determined as 23.6 µM; in the assay on EKVX NSCLC, 57.5 µM; in the assay on HCC-2998 colon it was 41.2 µM; with MOLT-4 leukemia it was 10.1 µM; in the assay on SN12C renal it was 44.7 µM; in the assay on SK-MEL-5 melanoma it was 61.9 µM. The TGI in the assay with COLO 205 colon is over 100 µM.

On to `CN(CCCCCl)P(=O)(OCc1ccc([N+](=O)[O-])o1)OC[C@H]1O[C@@H](n2cc(F)c(=O)[nH]c2=O)C[C@@H]1O` (stereo partly drawn), for which the TGI with K-562 leukemia is over 59.4 µM; with EKVX NSCLC, over 100 µM; with MOLT-4 leukemia, over 46.1 µM; with SN12C renal it was 9.07 µM; in the assay with 786-0 renal, over 80.1 µM; in the assay on DU-145 prostate, 40.2 µM. The TGI in the assay with MDA-N was 33.3 µM; in the assay on HS 578T breast, 8.68 µM; with SK-MEL-5 melanoma, 12.9 µM; in the assay with PC-3 prostate it was over 56.1 µM; in the assay with T-47D breast it was 5.41 µM; in the assay with COLO 205 colon it was 16.5 µM.

On to `CCOc1ccc(NC(=O)C(=O)CC(=O)c2sc(NNC(C)=O)nc2C)cc1`, for which the TGI with K-562 leukemia, with EKVX NSCLC, with HCC-2998 colon, in the assay with MOLT-4 leukemia, in the assay with SN12C renal and in the assay on SK-MEL-5 melanoma was over 100 µM each time. Further, the TGI in the assay on COLO 205 colon was over 100 µM.

With `C[C@]12C=CC(=O)C=C1CC[C@@H]1[C@@H]2CC[C@]2(C)OC(=O)CC[C@@H]12`, the TGI is over 500 µM with K-562 leukemia; over 500 µM in the assay with EKVX NSCLC; over 409 µM in the assay with HCC-2998 colon; over 500 µM in the assay on MOLT-4 leukemia; over 500 µM in the assay on SN12C renal; over 500 µM in the assay with 786-0 renal. In addition, the TGI with DU-145 prostate was over 500 µM; in the assay on MDA-N it was over 500 µM; in the assay with HS 578T breast, over 500 µM; in the assay on SK-MEL-5 melanoma it was over 477 µM; in the assay with PC-3 prostate it was over 500 µM; in the assay with T-47D breast, over 500 µM. In the assay with COLO 205 colon, the TGI is over 500 µM.

Consider `CC(C)=CCC/C(C)=C/CC/C(C)=C/CC/C(C)=C/C=C/C=C(\C)CC/C=C(\C)CC/C=C(\C)CCC=C(C)C`, for which the TGI is over 31.6 µM with K-562 leukemia; over 93.3 µM with EKVX NSCLC; over 100 µM with HCC-2998 colon; 49 µM in the assay on MOLT-4 leukemia; over 55.3 µM in the assay on SN12C renal; 52.3 µM in the assay on 786-0 renal. Further, the TGI in the assay on DU-145 prostate is over 100 µM; in the assay on MDA-N, over 100 µM; with HS 578T breast, over 100 µM; in the assay with SK-MEL-5 melanoma, over 79.9 µM; in the assay with PC-3 prostate, over 100 µM; in the assay on T-47D breast, over 100 µM. In the assay with COLO 205 colon, the TGI was over 100 µM.
